Activity calls are given as the source filed them. No rule for the calls is given here.
Tested on: CCRIS mutagenicity, Ames/micronucleus/aberration tests
Assay: CCRIS mutagenicity studies
[1] = Test System: AMES SALMONELLA TYPHIMURIUM, Strain/Indicator: TA100, Metabolic Activation: NONE, Method: PREINCUBATION
[2] = Test System: AMES SALMONELLA TYPHIMURIUM, Strain/Indicator: TA104, Metabolic Activation: NONE, Method: PREINCUBATION
[3] = End Point: In vitro chromosomal aberrations, Test System: Chinese hamster ovary (CHO) cells, Metabolic Activation: None
[4] = Test System: AMES SALMONELLA TYPHIMURIUM, Strain/Indicator: TA98, Metabolic Activation: NONE, Method: STANDARD PLATE
[5] = Test System: AMES SALMONELLA TYPHIMURIUM, Strain/Indicator: TA100, Metabolic Activation: NONE, Method: STANDARD PLATE

CCCC=O
mutagenic call (End Point: IN VITRO CHROMOSOMAL ABERRATIONS, Test System: CHINESE HAMSTER OVARY CELLS, Metabolic Activation: NONE): inactive; negative | mutagenic call (End Point: IN VITRO CHROMOSOMAL ABERRATIONS, Test System: CHINESE HAMSTER OVARY CELLS, Metabolic Activation: RAT, LIVER, S-9, AROCLOR 1254): inactive; negative | mutagenic call (End Point: In vitro chromosomal aberrations, Test System: Chinese hamster lung (CHL/IU) cells, Metabolic Activation: Rat, Liver, S9, Phenobarbital and 5,6-benzoflavone): active; positive (structural changes). ploidy not dose related. | mutagenic call [1]: inactive; negative | mutagenic call (Test System: AMES SALMONELLA TYPHIMURIUM, Strain/Indicator: TA100, Metabolic Activation: RAT LIVER S-9, AROCLOR 1254, Method: PREINCUBATION): inactive; negative | mutagenic call (Test System: AMES SALMONELLA TYPHIMURIUM, Strain/Indicator: TA102, Metabolic Activation: NONE, Method: PREINCUBATION): inactive; negative | mutagenic call (Test System: AMES SALMONELLA TYPHIMURIUM, Strain/Indicator: TA102, Metabolic Activation: RAT LIVER S-9, AROCLOR 1254, Method: PREINCUBATION): inactive; negative | mutagenic call [2]: inactive; negative | mutagenic call (Test System: AMES SALMONELLA TYPHIMURIUM, Strain/Indicator: TA104, Metabolic Activation: RAT LIVER S-9, AROCLOR 1254, Method: PREINCUBATION): inactive; negative | mutagenic call (Test System: CHINESE HAMSTER V-79, Strain/Indicator: V-79/6-THIOGUANINE (HGPRT), Metabolic Activation: NONE, Method: REPLATING): active; positive | mutagenic call (Test System: CHINESE HAMSTER V-79, Strain/Indicator: V-79/OUABAIN (NA/K), Metabolic Activation: NONE, Method: REPLATING): active; positive | mutagenic call (Test System: UDS HUMAN HEPATOCYTES, Strain/Indicator: THY INCORP, Metabolic Activation: NONE, Method: AUTORADIOGRAPHY): inactive; negative | mutagenic call (Test System: UDS RAT HEPATOCYTES, Strain/Indicator: THY INCORP, Metabolic Activation: NONE, Method: AUTORADIOGRAPHY): active; positive

N=C1C=CC2=C(S(=O)(=O)O)C=CC(=O)C2=C1NNc1ccc(-c2ccc(NNC3=C4C(=O)C=CC(S(=O)(=O)O)=C4C=CC3=N)cc2)cc1
mutagenic call (Test System: AMES SALMONELLA TYPHIMURIUM, Strain/Indicator: TA98, Metabolic Activation: HAMSTER, LIVER, S-9, Method: PREINCUBATION (PRIVAL METHOD)): active; positive

Fc1ccc(F)c2ncccc12
mutagenic call (Test System: AMES SALMONELLA TYPHIMURIUM, Strain/Indicator: TA100, Metabolic Activation: RAT LIVER S-9, PHENOBARBITAL AND 5,6-BENZOFLAVONE, Method: PREINCUBATION): active; positive | mutagenic call (Test System: AMES SALMONELLA TYPHIMURIUM, Strain/Indicator: TA100, Metabolic Activation: RAT, LIVER, S-9, PHENOBARBITAL AND 5,6-BENZOFLAVONE, Method: PREINCUBATION): active; positive

NC(=O)CC[C@H](N)C(=O)O
mutagenic call [3]: inactive; negative; glutamine, alone or in combination with vitamin c, reduced effect of d | mutagenic call (End Point: In vivo chromosomal aberrations, Test System: Bone marrow cells, Species: Rat, Strain/Sex: Wistar/Male and female, Route: Oral): inactive; negative; glutamine, alone or with vitamin c, reduced effect of doxorubicin | mutagenic call (End Point: In vivo micronucleus, Test System: Peripheral blood cells, Species: Mouse, Strain/Sex: Swiss/Male, Route: Oral): inactive; negative

O=C(Cl)c1c(Cl)cccc1Cl
mutagenic call (Test System: AMES SALMONELLA TYPHIMURIUM, Strain/Indicator: TA98, Metabolic Activation: NONE, Method: PREINCUBATION): active; positive | mutagenic call (Test System: AMES SALMONELLA TYPHIMURIUM, Strain/Indicator: TA98, Metabolic Activation: RAT LIVER S-9, PCB, Method: PREINCUBATION): active; positive | mutagenic call [1]: active; positive | mutagenic call (Test System: AMES SALMONELLA TYPHIMURIUM, Strain/Indicator: TA100, Metabolic Activation: RAT LIVER S-9, PCB, Method: PREINCUBATION): active; positive | mutagenic call [2]: inactive; negative | mutagenic call (Test System: AMES SALMONELLA TYPHIMURIUM, Strain/Indicator: TA104, Metabolic Activation: RAT LIVER S-9, PCB, Method: PREINCUBATION): active; positive | mutagenic call (Test System: E.COLI, Strain/Indicator: WP2 UVRA, Metabolic Activation: NONE, Method: PREINCUBATION): active; positive | mutagenic call (Test System: E.COLI, Strain/Indicator: WP2 UVRA, Metabolic Activation: RAT LIVER S-9, PCB, Method: PREINCUBATION): active; positive

CCC1CCC(CCC(=O)[O-])C1.CCC1CCC(CCC(=O)[O-])CC1.[Cu+2] (stereo unspecified)
mutagenic call [3]: inactive; negative | mutagenic call (End Point: In vitro chromosomal aberrations, Test System: Chinese hamster ovary (CHO) cells, Metabolic Activation: Rat, Liver, S-9, Aroclor): inactive; negative | mutagenic call (Test System: AMES SALMONELLA TYPHIMURIUM, Strain/Indicator: TA98, Metabolic Activation: HAMSTER, LIVER, S-9, AROCLOR 1254 (10%), Method: STANDARD PLATE): inactive; negative | mutagenic call [4]: inactive; negative | mutagenic call (Test System: AMES SALMONELLA TYPHIMURIUM, Strain/Indicator: TA98, Metabolic Activation: RAT, LIVER, S-9, AROCLOR 1254 (10%), Method: STANDARD PLATE): inactive; negative | mutagenic call (Test System: AMES SALMONELLA TYPHIMURIUM, Strain/Indicator: TA100, Metabolic Activation: HAMSTER, LIVER, S-9, AROCLOR 1254 (10%), Method: STANDARD PLATE): inactive; negative | mutagenic call [5]: inactive; negative | mutagenic call (Test System: AMES SALMONELLA TYPHIMURIUM, Strain/Indicator: TA100, Metabolic Activation: RAT, LIVER, S-9, AROCLOR 1254 (10%), Method: STANDARD PLATE): inactive; negative | mutagenic call (Test System: AMES SALMONELLA TYPHIMURIUM, Strain/Indicator: TA1535, Metabolic Activation: HAMSTER, LIVER, S-9, AROCLOR 1254 (10%), Method: STANDARD PLATE): inactive; negative | mutagenic call (Test System: AMES SALMONELLA TYPHIMURIUM, Strain/Indicator: TA1535, Metabolic Activation: NONE, Method: STANDARD PLATE): inactive; negative | mutagenic call (Test System: AMES SALMONELLA TYPHIMURIUM, Strain/Indicator: TA1535, Metabolic Activation: RAT, LIVER, S-9, AROCLOR 1254 (10%), Method: STANDARD PLATE): inactive; negative | mutagenic call (Test System: AMES SALMONELLA TYPHIMURIUM, Strain/Indicator: TA1537, Metabolic Activation: HAMSTER, LIVER, S-9, AROCLOR 1254 (10%), Method: STANDARD PLATE): inactive; negative | mutagenic call (Test System: AMES SALMONELLA TYPHIMURIUM, Strain/Indicator: TA1537, Metabolic Activation: NONE, Method: STANDARD PLATE): inactive; negative | mutagenic call (Test System: AMES SALMONELLA TYPHIMURIUM, Strain/Indicator: TA1537, Metabolic Activation: RAT, LIVER, S-9, AROCLOR 1254 (10%), Method: STANDARD PLATE): inactive; negative | mutagenic call (Test System: AMES SALMONELLA TYPHIMURIUM, Strain/Indicator: TA1538, Metabolic Activation: HAMSTER, LIVER, S-9, AROCLOR 1254 (10%), Method: STANDARD PLATE): inactive; negative | mutagenic call (Test System: AMES SALMONELLA TYPHIMURIUM, Strain/Indicator: TA1538, Metabolic Activation: NONE, Method: STANDARD PLATE): inactive; negative | mutagenic call (Test System: AMES SALMONELLA TYPHIMURIUM, Strain/Indicator: TA1538, Metabolic Activation: RAT, LIVER, S-9, AROCLOR 1254 (10%), Method: STANDARD PLATE): inactive; negative | mutagenic call (Test System: MOUSE LYMPHOMA, Strain/Indicator: L5178Y (TK+/TK-), Metabolic Activation: RAT, LIVER, S-9, AROCLOR 1254, Method: SUSPENSION/PLATE): active; positive. reevaluation of results: positive | mutagenic call (Test System: Mouse lymphoma, Strain/Indicator: L5178Y TK+/-, Metabolic Activation: Mammalian, liver, S-9): active; positive | mutagenic call (Test System: Mouse lymphoma, Strain/Indicator: L5178Y TK+/-, Metabolic Activation: None): inactive; negative

OC(c1ccc(Cl)cc1)(c1ccc(Cl)cc1)C1CC1
mutagenic call (Test System: AMES SALMONELLA TYPHIMURIUM, Strain/Indicator: TA97, Metabolic Activation: NONE, Method: STANDARD PLATE): inactive; negative | mutagenic call (Test System: AMES SALMONELLA TYPHIMURIUM, Strain/Indicator: TA97, Metabolic Activation: RAT, LIVER, S-9, AROCLOR 1254, Method: STANDARD PLATE): inactive; negative | mutagenic call [4]: inactive; negative | mutagenic call (Test System: AMES SALMONELLA TYPHIMURIUM, Strain/Indicator: TA98, Metabolic Activation: RAT, LIVER, S-9, AROCLOR 1254, Method: STANDARD PLATE): inactive; negative | mutagenic call [5]: inactive; negative | mutagenic call (Test System: AMES SALMONELLA TYPHIMURIUM, Strain/Indicator: TA100, Metabolic Activation: RAT, LIVER, S-9, AROCLOR 1254, Method: STANDARD PLATE): inactive; negative

CS(=O)CC[C@H](N)C(=O)O.Cc1ccc(NCC(=O)N(CC(=O)O)CC(=O)O)c(C)c1.[H+].[H+].[Pt]
mutagenic call (Test System: MOUSE LYMPHOMA, Strain/Indicator: L5178Y(LY-R) (HGPRT)/6-THIOGUANINE, Metabolic Activation: NONE): active; positive

CCOc1ccc(N(O)C(=O)CC(C)O)cc1 (stereo unspecified)
mutagenic call (Test System: AMES SALMONELLA TYPHIMURIUM, Strain/Indicator: TA100, Metabolic Activation: HAMSTER, LIVER, S-9, KANECHLOR 400 (WITHOUT NADPH GENERATING SYSTEM), Method: PREINCUBATION): active; positive | mutagenic call [1]: inactive; negative

— PubChem BioAssay AID1259407 (Chemical Carcinogenesis Research Information System (CCRIS), 2018)
